“Also recorded” adds a separate entry of the source. Ends that are not written are not given here.
Experiments:
[1] = system: ES cells derived from an HB9-GFP-transgenic mouse; assay: Differentiation of ES cells into motor neurons (eGFP under HB9 promoter in embryoid bodies); type: cell-based; conditions: for expression of eGFP under the control of the HB9 promoter (green fluorescence of EBs) compared with RA and Shh agonist: EBs treated with RA (1 μM) and peptide; for differentiation of ES cells into motor neurons: in the presence of RA; for concentration at which elevated fluorescence was detectable (as low as) / concentration at which fluorescence appeared to be optimal: with RA; for concentration at which fluorescence appeared to be optimal: in this experiment
Description: ES cells were derived from an HB9-GFP-transgenic mouse and fluoresce green upon adoption of a motoneuron phenotype [Wichterle, H. et al. ([…]) Cell 110, 385-397, incorporated herein by reference]. The mouse ES cells were maintained in a proliferative and undifferentiated state in the presence of murine LIF (Chemicon). The ES cells were cultured on a feeder layer of primary mouse embryonic fibroblasts that were mitomycin treated.
Mouse ES cells were separated from the feeder layer of fibroblasts. This was done by trypsinizing and plating the cell mixture on cell culture flasks coated with 0.1% gelatin. The fibroblasts attached specifically on the gelatin leaving a pure population of floating ES cells. The floating ES cells were collected and resuspended in differentiating medium. This stage was called “d−1”. The ES cells formed embryoid bodies (EBs) and 24 hours later (“d0”) were exposed to RA (1 μM)+MNTF or RA (1 μM)+Shh agonist (1 μM). MNTF peptides (all six forms) were tested at a final concentration range of 0.1 μg/ml-150 μg/ml.
The differentiation assay was carried for six days from “d−1” stage.

IR/IGF1R [pYpY1162/1163] = assay: Autophosphorylation of Insulin/IGF receptor(s), western blot of embryoid bodies; type: cell-based, mouse; conditions: for autophosphorylation of IR/IGF-R (pTyr 1162/1163): RA (1 μM) + MNTF 33mer (10 μg/ml), FIG. 3
Description: Embryoid bodies (EBs) were exposed to RA (1 μM)+MNTF 33mer (10 μg/ml) or RA (1 μM)+MNTF 33mer (10 μg/ml)+/−HNMPA-(AM)3 (50 nM). Cells were harvested at 0, 15 min, 30 min, 1 h, 2 h and 4 h time points.
The cells were harvested as described previously [Barber, A. J. et al., (2001) J. Biol. Chem. 276, 32814-32821]. Protein concentrations were measured with the Pierce BCA reagent, and all samples were adjusted for equal protein before SDS-polyacrylamide gel electrophoresis.
Cell lysates were immunoblotted with polyclonal antibodies against phosphotyrosines 1162-1163 of IR/IGFR1 following the manufacturer's directions or standard techniques. Protein bands were detected by enhanced chemical fluorescence. Densitometric analysis of enhanced chemical fluorescence immunoblots was performed with ImageQuant (Molecular Dynamics, Sunnyvale, Calif.).

[2] = system: ES cell-derived motor neurons; assay: Survival of ES cell-derived motor neurons in dissociated cultures; type: cell-based, mouse; conditions: for maintaining dissociated cultures: dissociated ES-derived motor neuron cultures; for enhancement of survival of stem cell derived motor neurons: percentage survivability on day ten, FIG. 4
Description: Mouse embryonic stem (ES) cells were differentiated in the presence of RA and Hg-agonist (Curis, Inc.). On day four, the differentiated embryoid bodies were partially dissociated with 0.05% trypsin or Collagenase and Dispase (1 mg/ml in PBS) and plated on coverslips coated with PLL-Laminin and matrigel.
The dissociated cultures were then treated with GDNF (10 ng/ml), MNTF (all seven forms) at different doses (0.1 μg/ml, 1 μg/ml, 10 μg/ml and 50 μg/ml), and dbcAMP (1 μM), NT3 (10 μg/ml) at day five.
Neurons and their axons were identified by using the fluorescence produced by GFP expressed from the HB9 promoter. Neurite outgrowth can be quantified as described previously [Harper, J. M. et al. (2004) PNAS 101, 7123-7128, incorporated herein by reference] at day six, eight and ten. Percentage survivability was calculated on day ten by counting the total number of cells with existing axons.

mouse ES cells [3] = assay: MNTF induced differentiation in the presence of Shh inhibitor (GFP fluorescence of embryoid bodies); type: cell-based; conditions: inhibitor 5 μM, day 5; for effect of inhibitor on MNTF induced differentiation of ES cells: RA + MNTF 33mer at 10 μg/ul; for effect of inhibitor on the GFP fluorescence effect of Shh-Agonist: RA + Shh agonist
Description: The ES cells were differentiated as mentioned above and at day 0 they were treated with RA+Shh-Agonist; RA+Shh Agonist+Cyclopamine-KAAD (5 μM); RA+MNTF (33mer at 10 μg/ul); and RA+Cyclopamine-KAAD (5 μM)+MNTF (33mer at 10 μg/ul). The inhibitor was pretreated for an hour before the addition of the other components.
At day 5 of differentiation the embryoid bodies were checked for GFP fluoresence indicating the differentiation of the ES cells into a motor neuron phenotype.
Receptor kinase studies were used to measure the affinity of MNTF for the Insulin Receptor (IR). […] We then tested whether signals through either of these pathways are possible in generating motor neurons. […] Thus, MNTF is still capable of generating post-mitotic mature motor neurons.
FIG. 5 illustrates a comparison of the expression of GFP fluorescence under the control of the motor neuron specific HB9 promoter at day 5 of differentiation in response to control (A), RA (3); RA/Shh (C); cyclopamine-KAAD, RA/Shh (D); RA and MNTF 33mer (E); Cyclopamine-KAAD, RA and MNTF 33mer (F).

mouse ES cells [4] = assay: Differentiation of ES cells in the presence of IR or IGF1-R inhibitor (GFP fluorescence of day 5 embryoid bodies); type: cell-based; conditions: for effect of inhibitor on MNTF induced differentiation (GFP fluorescence): HNMPA(AM)3 15 μM or PPP 1 μM, RA/MNTF33 or RA/MNTF10, FIG. 6
motor neurons = conditions: in vivo, compared with MNTF1-F6 33-mer; cited from earlier work
[5] = system: motor neuron derived cell lines; conditions: compared with MNTF1-F6 33-mer; cited from earlier work
surviving motor neurons = conditions: axotomized rat peripheral nerves, versus untreated controls; cited from earlier work
spinal cord hemi-section = conditions: rats, MNTF1-containing gel sections near nerve graft junctions; cited from earlier work
[6] = system: anterior horn motor neurons; conditions: rat lumbar spinal cord explants; cited from earlier work
wobbler mice = conditions: MNTF1-containing gel sections implanted at C7-T3 region; cited from earlier work

Compound: 33mer: 33 amino acid MNTF1-F6 sequence (SEQ ID NO:1), synthesized by solid phase synthesis (LGTFWGDTLNCWMLSAFSRYARCLAEGHDGPTQ)
- expression of eGFP under the control of the HB9 promoter (green fluorescence of EBs) compared with RA and Shh agonist ([1]; FIG. 2): to the same extent or greater than EBs treated with RA and Shh agonist
- differentiation of ES cells into motor neurons [1]: effectively substitute for Sonic Hedgehog
- differentiation of ES cells into motor neurons ([1]; listed as 33-mer): induced differentiation of ES cells into motor neurons; also recorded: capable of inducing differentiation of ES cells into differentiated motor neurons
- concentration at which elevated fluorescence was detectable (as low as) ([1]; FIG. 2): 0.1 µg/mL
- concentration at which fluorescence appeared to be optimal [1]: about 10 μg/ml
- autophosphorylation of IR/IGF-R (pTyr 1162/1163) (IR/IGF1R [pYpY1162/1163]): autophosphorylation of IR/IGF-R
- autophosphorylation of IR/IGF-R (pTyr 1162/1163) (IR/IGF1R [pYpY1162/1163]; listed as MNTF1 33-mer): associated with autophosphorylation of the insulin receptor (IR) and/or insulin-like growth factor receptor (IGF-R)
- maintaining dissociated cultures [2]: effective at maintaining dissociated cultures up to 10 days

Compound: MLSAFSRYARCLAEGHDGPTQ (CWMLSAFSRYARC; Synthetic MNTF peptide sequence) [21mer]
- enhancement of survival of stem cell derived motor neurons [2]: sufficient to enhance survival of stem cell derived motor neurons

Compound: 3-keto-N-(aminoethyl-aminocaproyl-dihydrocinnamoyl)cyclopamine [Cyclopamine-KAAD]
- effect of inhibitor on MNTF induced differentiation of ES cells (mouse ES cells [3]): did not block MNTF induced differentiation of ES cells
- effect of inhibitor on MNTF induced differentiation of ES cells (mouse ES cells [3]; listed as cyclopamine-KAAD): did not block the activity of MNTF induced differentiation
- effect of inhibitor on the GFP fluorescence effect of Shh-Agonist (mouse ES cells [3]): blocked the GFP fluoresence effect of Shh-Agonist
- effect of inhibitor on the GFP fluorescence effect of Shh-Agonist (mouse ES cells [3]; listed as cyclopamine-KAAD): blocks the effect of Shh on mouse ES cells

Compound: CC(=O)OCOC(c1ccc2ccccc2c1)P(=O)(OCOC(C)=O)OCOC(C)=O (stereo not drawn) [HNMPA-(AM)3, Hydroxy-2-naphthalenylmethylphosphonic acid trisacetoxymethyl ester]
- effect of inhibitor on MNTF induced differentiation (GFP fluorescence) (mouse ES cells [4]): blocks the effect of MNTF on mouse ES cells
- effect of inhibitor on Shh induced differentiation (GFP fluorescence) (mouse ES cells [4]; HNMPA(AM)3 15 μM, FIG. 6): did not block the activity of Shh induced differentiation
- effect of IR inhibitor on autophosphorylation of IR/IGF-R in MNTF 33mer treated cells (IR/IGF1R [pYpY1162/1163]; HNMPA-(AM)3 50 nM with RA + MNTF 33mer (10 μg/ml)): reduced autophosphorylation within 15 min

Compound: FSRYAR [6mer]
- selective reinnervation of muscle targets by motor neurons (motor neurons): sufficient to direct selective reinnervation of muscle targets
- proliferation of motor neuron derived cell lines [5]: sufficient to stimulate the proliferation of motor neuron derived cell lines
- enhancement of survival of stem cell derived motor neurons [2]: sufficient to enhance survival of stem cell derived motor neurons

Compound: MNTF1: naturally occurring and recombinant motoneuronotrophic factor 1 polypeptides; in b137 the word stands for the synthetic 33-mer (LGTFWGDTLNCWMLSAFSRYARCLAEGHDGPTQ)
- percentage of surviving motor neurons (surviving motor neurons): markedly higher percentage of surviving motor neurons than untreated controls
- surviving motor neurons and functional recovery (spinal cord hemi-section): greater numbers of surviving motor neurons, improved recovery of motor and sensory function
- survival in vitro of anterior horn motor neurons [6]: selectively enhance the survival
- progression of symptoms (wobbler mice): delayed the progression of symptoms in wobbler mice

Compound: COc1cc([C@@H]2c3cc4c(cc3[C@H](O)[C@H]3COC(=O)[C@@H]23)OCO4)cc(OC)c1OC [picrodophyllin]
- effect of inhibitor on MNTF induced differentiation (GFP fluorescence) (mouse ES cells [4]): does not effectively block the activity of MNTF induced differentiation

Compound: FSRYARCLAEG (Synthetic MNTF peptide analog) [11mer]
- enhancement of survival of stem cell derived motor neurons [2]: sufficient to enhance survival of stem cell derived motor neurons

Compound: MLSAFSRYAR (Synthetic MNTF peptide analog) [10mer]
- expression of eGFP under the control of the HB9 promoter (green fluorescence of EBs) compared with RA and Shh agonist ([1]; FIG. 2): to the same extent or greater than EBs treated with RA and Shh agonist
- differentiation of ES cells into motor neurons [1]: effectively substitute for Sonic Hedgehog
- differentiation of ES cells into motor neurons ([1]; listed as MNTF 10-mer): capable of inducing differentiation of ES cells into differentiated motor neurons
- concentration at which differentiation is stimulated (as low as) ([1]; in vitro, FIG. 2): 0.01 µg/mL
- effectiveness at stimulating differentiation of embryonic stem cells into motor neurons compared with MNTF 33mer ([1]; in vitro, FIG. 2): at least as effective the full-length MNTF 33mer
- concentration at which elevated fluorescence was detectable (as low as) ([1]; FIG. 2): 0.1 µg/mL
- concentration at which fluorescence appeared to be optimal [1]: about 10 μg/ml
- maintaining dissociated cultures [2]: effective at maintaining dissociated cultures up to 10 days
- enhancement of survival of stem cell derived motor neurons [2]: nearly as effective as the MNTF 33mer

Compound: WMLSAFS [7mer]
- proliferation of motor neuron derived cell lines [5]: sufficient to stimulate the proliferation of motor neuron derived cell lines
- enhancement of survival of stem cell derived motor neurons [2]: sufficient to enhance survival of stem cell derived motor neurons

— patent US8986676B2, “MNTF differentiation and growth of stem cells” (Genervon Biopharmaceuticals LLC, priority 2005, dated 2015)
